According to patent US20250122171A1, “Substituted Amine Compounds, Compositions and Methods of Use” (Deep Apple Therapeutics, Inc., priority 2023, published 2025):

These molecules were tested against T1, human MRGPRX2 (Homo sapiens, UniProt Q96LB1) (assay: MRGPRX2 Activity Assay (IP-1 HTRF, antagonist mode)). Conditions: FlpIn TRex-MRGPRX2-HEK293 cells; versus 1 μM Cortistatin-14 agonist; 30 minutes preincubation.
T1 construct: expressed in transfected cells; host or cells: FlpIn TRex HEK293 (TRex-MRGPRX2-HEK), doxycycline-induced
T1 sequence (Q96LB1 1-330): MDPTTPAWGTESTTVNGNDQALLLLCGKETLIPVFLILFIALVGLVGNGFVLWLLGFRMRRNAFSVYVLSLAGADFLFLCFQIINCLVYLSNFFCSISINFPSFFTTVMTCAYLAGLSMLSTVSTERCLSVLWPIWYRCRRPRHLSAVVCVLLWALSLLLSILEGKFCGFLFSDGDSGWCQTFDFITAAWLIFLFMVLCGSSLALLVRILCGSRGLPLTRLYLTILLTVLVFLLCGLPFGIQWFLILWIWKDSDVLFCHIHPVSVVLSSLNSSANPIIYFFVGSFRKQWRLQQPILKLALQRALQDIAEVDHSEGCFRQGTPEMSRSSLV
Assay type: cell-based
Protocol: FlpIn TRex-MRGPRX2-HEK293 cells (herein TRex-MRPGRX2-HEK) stably transfected to express human MRGPRX2 were maintained at 37° C. with 5% CO2 and grown in DMEM supplemented with 10% FBS, 1% L-Glutamate, 1% penicillin/streptomycin, 100 ug/mL Hygromycin B, and 15 ug/mL Blasticidin.
GOI (MRGPRX2) expression was induced with 100 ng/mL of Doxycycline 18-24 hours prior to experiment, in flask. On the day of experiment, cells were lifted with TripLE Express and seeded in 384-well white walled opaque bottomed, assay plates, at 8,000 cells per well in 5 uL freshly made assay buffer (HBSS, 20 mM HEPES, 0.1% BSA and 10 mM LiCl). Compounds solubilized in 100% DMSO at 30 mM were serially diluted (1:4) first in 100% DMSO, and an intermediate plate of assay buffer was used to establish a final top concentration of 30 uM (in assay plate). Final DMSO concentration was kept constant at 1% across assay plates. […], at 30 mM stock concentration was solubilized in HBSS+0.1% BSA, stored at −20° C. in 5 μL aliquots and discarded after one freeze-thaw cycle. […].
Antagonist equilibrium was established with 30 minutes preincubation, followed by no wash, direct addition, and stimulation of agonist for 1 hour at 37° C./5% CO2. IP-1 standards and HTRF detection reagents were added according to the IP-one Gq kit protocol purchased from CisBio (part number 62IPAPEJ). The plate was read on an EnVision XCite plate reader. The HTRF ratio was then calculated from raw data (channel1/channel2×10,000) and analyzed using either GraphPad Prism or a custom Python script to calculate IC50 using Log[Antagonist] vs. response (4 parameter) nonlinear regression.

`C[C@@H](C(=O)Nc1cn(Cc2ccc(F)c(F)c2F)cn1)N1CCC(F)(F)[C@@H](c2cc[n+]([O-])cc2)C1` [Compound 42, 4-((S)-4,4-difluoro-1-((S)-1-oxo-1-((1-(2,3,4-trifluorobenzyl)-1H-imidazol-4-yl)amino)propan-2-yl)piperidin-3-yl)pyridine 1-oxide] and `C[C@@H](C(=O)Nc1cn(Cc2cccc(Cl)c2)cn1)N1CCC(F)(F)[C@@H](c2cc[n+]([O-])cc2)C1` [Compound 43, 4-((S)-1-((S)-1-((1-(3-chlorobenzyl)-1H-imidazol-4-yl)amino)-1-oxopropan-2-yl)-4,4-difluoropiperidin-3-yl)pyridine 1-oxide] are within 1.5-fold of each other in IC50: 169 nM for the first, 131 nM for the second.

Compared with `C[C@@H](C(=O)Nc1cn(Cc2cc(F)c(Cl)c(F)c2)cn1)N1CCC(F)(F)[C@@H](c2cc[n+]([O-])cc2)C1` [Compound 44, 4-((S)-1-((S)-1-((1-(4-chloro-3,5-difluorobenzyl)-1H-imidazol-4-yl)amino)-1-oxopropan-2-yl)-4,4-difluoropiperidin-3-yl)pyridine 1-oxide], `C[C@@H](C(=O)Nc1cn(Cc2cc(F)c(Cl)cc2F)cn1)N1CCC(F)(F)[C@@H](c2cc[n+]([O-])cc2)C1` [Compound 45, 4-((S)-1-((S)-1-((1-(4-chloro-2,5-difluorobenzyl)-1H-imidazol-4-yl)amino)-1-oxopropan-2-yl)-4,4-difluoropiperidin-3-yl)pyridine 1-oxide] is 3.7-fold higher in IC50: 241 nM for the first, 885 nM for the second. The first is the more potent here.

First: C[C@@H](C(=O)Nc1cn(Cc2ccc(F)c(F)c2)cn1)N1CCC(F)(F)[C@@H](c2cc[n+]([O-])cc2)C1 [Compound 46, 4-((S)-1-((S)-1-((1-(3,4-difluorobenzyl)-1H-imidazol-4-yl)amino)-1-oxopropan-2-yl)-4,4-difluoropiperidin-3-yl)pyridine 1-oxide]
Second: C[C@@H](C(=O)Nc1cn(Cc2ccc(Cl)c(F)c2)cn1)N1CCC(F)(F)[C@@H](c2cc[n+]([O-])cc2)C1 [Compound 47, 4-((S)-1-((S)-1-((1-(4-chloro-3-fluorobenzyl)-1H-imidazol-4-yl)amino)-1-oxopropan-2-yl)-4,4-difluoropiperidin-3-yl)pyridine 1-oxide]
The IC50 of the first is 3.7-fold lower: 210 nM for the first, 775 nM for the second.

Compared with `C[C@@H](C(=O)Nc1cn(Cc2ccc(F)cc2Cl)cn1)N1CCC(F)(F)[C@@H](c2cc[n+]([O-])cc2)C1` [Compound 48, 4-((S)-1-((S)-1-((1-(2-chloro-4-fluorobenzyl)-1H-imidazol-4-yl)amino)-1-oxopropan-2-yl)-4,4-difluoropiperidin-3-yl)pyridine 1-oxide], `C[C@@H](C(=O)Nc1cn(Cc2cccc(F)c2F)cn1)N1CCC(F)(F)[C@@H](c2cc[n+]([O-])cc2)C1` [Compound 49, 4-((S)-1-((S)-1-((1-(2,3-difluorobenzyl)-1H-imidazol-4-yl)amino)-1-oxopropan-2-yl)-4,4-difluoropiperidin-3-yl)pyridine 1-oxide] is 4-fold lower in IC50: 214 nM for the first, 53 nM for the second. The second is the more potent here.

`C[C@@H](C(=O)Nc1cn(Cc2cc(Cl)cc(Cl)c2)cn1)N1CCC(F)(F)[C@@H](c2cc[n+]([O-])cc2)C1` [Compound 50, 4-((S)-1-((S)-1-((1-(3,5-dichlorobenzyl)-1H-imidazol-4-yl)amino)-1-oxopropan-2-yl)-4,4-difluoropiperidin-3-yl)pyridine 1-oxide] and `C[C@@H](C(=O)Nc1cn(Cc2cccc(F)c2Cl)cn1)N1CCC(F)(F)[C@@H](c2cc[n+]([O-])cc2)C1` [Compound 51, 4-((S)-1-((S)-1-((1-(2-chloro-3-fluorobenzyl)-1H-imidazol-4-yl)amino)-1-oxopropan-2-yl)-4,4-difluoropiperidin-3-yl)pyridine 1-oxide] are within 1.5-fold of each other in IC50: 45 nM for the first, 34 nM for the second.

Going from `[2H]C([2H])(c1cc(F)cc(F)c1)n1cnc(NC(=O)[C@H](C)N2CCC(F)(F)[C@@H](c3cc[n+]([O-])cc3)C2)c1` [Compound 52, 4-((S)-1-((S)-1-((1-((3,5-difluorophenyl)methyl-d2)-1H-imidazol-4-yl)amino)-1-oxopropan-2-yl)-4,4-difluoropiperidin-3-yl)pyridine 1-oxide] to `C[C@@H](C(=O)Nc1cn(Cc2cc(F)ccc2C(F)(F)F)cn1)N1CCC(F)(F)[C@@H](c2cc[n+]([O-])cc2)C1` [Compound 62, 4-((S)-4,4-difluoro-1-((S)-1-((1-(5-fluoro-2-(trifluoromethyl)benzyl)-1H-imidazol-4-yl)amino)-1-oxopropan-2-yl)piperidin-3-yl)pyridine 1-oxide], the IC50 rises from 22 nM to 267 nM (12-fold).

`C[C@@H](C(=O)Nc1cn(Cc2ccncc2Cl)cn1)N1CCC(F)(F)[C@@H](c2cc[n+]([O-])cc2)C1` [Compound 63, 4-((S)-1-((S)-1-((1-((3-chloropyridin-4-yl)methyl)-1H-imidazol-4-yl)amino)-1-oxopropan-2-yl)-4,4-difluoropiperidin-3-yl)pyridine 1-oxide] and `C[C@@H](C(=O)Nc1cn(Cc2cccc(Cl)c2F)cn1)N1CCC(F)(F)[C@@H](c2cc[n+]([O-])cc2)C1` [Compound 64, 4-((S)-1-((S)-1-((1-(3-chloro-2-fluorobenzyl)-1H-imidazol-4-yl)amino)-1-oxopropan-2-yl)-4,4-difluoropiperidin-3-yl)pyridine 1-oxide] are within 1.5-fold of each other in IC50: 114 nM for the first, 78 nM for the second.

First: C[C@@H](C(=O)Nc1cn(Cc2cc(F)c(F)cc2F)cn1)N1CCC(F)(F)[C@@H](c2cc[n+]([O-])cc2)C1 [Compound 65, 4-((S)-4,4-difluoro-1-((S)-1-oxo-1-((1-(2,4,5-trifluorobenzyl)-1H-imidazol-4-yl)amino)propan-2-yl)piperidin-3-yl)pyridine 1-oxide]
Second: C[C@@H](C(=O)Nc1cn(Cc2cccc(Cl)c2Cl)cn1)N1CCC(F)(F)[C@@H](c2cc[n+]([O-])cc2)C1 [Compound 66, 4-((S)-1-((S)-1-((1-(2,3-dichlorobenzyl)-1H-imidazol-4-yl)amino)-1-oxopropan-2-yl)-4,4-difluoropiperidin-3-yl)pyridine 1-oxide]
The IC50 of the first is 7.1-fold higher: 504 nM for the first, 71 nM for the second.

First: C[C@@H](C(=O)Nc1cn(-c2cc(F)cc(F)c2)cn1)N1CCC(F)(F)[C@@H](c2cc[n+]([O-])cc2)C1 [Compound 75, 4-((S)-1-((S)-1-((1-(3,5-difluorophenyl)-1H-imidazol-4-yl)amino)-1-oxopropan-2-yl)-4,4-difluoropiperidin-3-yl)pyridine 1-oxide]
Second: C[C@@H](C(=O)Nc1cn(Cc2cc(F)cc(F)c2)c(C(F)F)n1)N1CCC(F)(F)CC1 [Compound 492, (S)—N-(1-(3,5-difluorobenzyl)-2-(difluoromethyl)-1H-imidazol-4-yl)-2-(4,4-difluoropiperidin-1-yl)propanamide]
The IC50 of the first is 15-fold higher: 513 nM for the first, 35 nM for the second. The second is the more potent here.

Going from `CNCc1cc(C2CN([C@@H](C)C(=O)Nc3cn4c(n3)CC[C@@H]4c3cc(F)cc(F)c3)CCC2(F)F)c[nH]c1=O` (stereo partly drawn) [Compound 529, (2S)-2-(4,4-difluoro-3-(5-((methylamino)methyl)-6-oxo-1,6-dihydropyridin-3-yl)piperidin-1-yl)-N—((R)-5-(3,5-difluorophenyl)-6,7-dihydro-5H-pyrrolo[1,2-a]imidazol-2-yl)propanamide] to “(2S)-2-[(3R)-4,4-difluoro-3-(1-methyl-6-oxopyridin-3-yl)piperidin-1-yl]-N-{1-[(3,5-difluorophenyl)methyl]imidazol-4-yl}propanamide [Compound 78]”, the IC50 rises from 80 nM to over 30000 nM. The first is the more potent here.

First: (R)-2-((S)-4,4-difluoro-3-(6-oxo-1,6-dihydropyridin-3-yl)piperidin-1-yl)-N-(1-(3,5-difluorobenzyl)-1H-imidazol-4-yl)propanamide [Compound 79]
Second: (S)-2-((S)-4,4-difluoro-3-(6-oxo-1,6-dihydropyridin-3-yl)piperidin-1-yl)-N-(1-(3,5-difluorobenzyl)-1H-imidazol-4-yl)propanamide [Compound 76]
The IC50 of the first is 8.2-fold higher: 18100 nM for the first, 2220 nM for the second. The second is the more potent here.
